Experimental data from PubChem BioAssay (NCI).
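GI50 marks 50% less growth. TGI marks complete inhibition of growth.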

How the values were obtained:
Test in all cases: growth of human tumour cells (NCI), 384-well format
K-562 leukemia = system: K-562 leukemia
HOP-62 NSCLC = system: HOP-62 NSCLC
KM12 colon = system: KM12 colon
SK-MEL-5 melanoma = system: SK-MEL-5 melanoma
CAKI-1 renal = system: CAKI-1 renal
SK-MEL-28 melanoma = system: SK-MEL-28 melanoma
UACC-62 melanoma = system: UACC-62 melanoma
MOLT-4 leukemia = system: MOLT-4 leukemia
SF-268 CNS = system: SF-268 CNS
HCT-116 colon = system: HCT-116 colon
MALME-3M melanoma = system: MALME-3M melanoma
SW-620 colon = system: SW-620 colon
SNB-75 CNS = system: SNB-75 CNS
ACHN renal = system: ACHN renal
NCI-H322M lung = system: NCI-H322M lung
HOP-92 NSCLC = system: HOP-92 NSCLC
MDA-MB-435 melanoma = system: MDA-MB-435 melanoma
PC-3 prostate = system: PC-3 prostate
HT29 colon = system: HT29 colon
DU-145 prostate = system: DU-145 prostate
NCI-H460 NSCLC = system: NCI-H460 NSCLC
IGROV1 ovarian = system: IGROV1 ovarian
NCI-H23 lung = system: NCI-H23 lung
BT-549 breast = system: BT-549 breast
HL-60(TB) leukemia = system: HL-60(TB) leukemia
UACC-257 melanoma = system: UACC-257 melanoma
SR leukemia = system: SR leukemia
EKVX NSCLC = system: EKVX NSCLC
LOX IMVI melanoma = system: LOX IMVI melanoma
A549 NSCLC = system: A549 NSCLC
T-47D breast = system: T-47D breast
UO-31 renal = system: UO-31 renal
COLO 205 colon = system: COLO 205 colon
TK-10 renal = system: TK-10 renal
OVCAR-4 ovarian = system: OVCAR-4 ovarian
HCT-15 colon = system: HCT-15 colon
NCI-H226 lung = system: NCI-H226 lung
RXF 393 renal = system: RXF 393 renal
786-0 renal = system: 786-0 renal
MDA-MB-468 breast = system: MDA-MB-468 breast
HCC-2998 colon = system: HCC-2998 colon
NCI-H522 lung = system: NCI-H522 lung
RPMI-8226 leukemia = system: RPMI-8226 leukemia
SK-OV-3 ovarian = system: SK-OV-3 ovarian
OVCAR-3 ovarian = system: OVCAR-3 ovarian
HS 578T breast = system: HS 578T breast
U251 glioblastoma = system: U251 glioblastoma
A498 renal = system: A498 renal
MCF7 breast = system: MCF7 breast
SF-295 CNS = system: SF-295 CNS
CCRF-CEM leukemia = system: CCRF-CEM leukemia
SNB-19 CNS = system: SNB-19 CNS
MDA-MB-231 breast = system: MDA-MB-231 breast
OVCAR-8 ovarian = system: OVCAR-8 ovarian
M14 melanoma = system: M14 melanoma
SF-539 CNS = system: SF-539 CNS
SN12C renal = system: SN12C renal
NCI/ADR-RES ovarian = system: NCI/ADR-RES ovarian

`Nc1ncccc1-c1nc2ccc(-c3ccccc3)nc2n1-c1ccc(C2(N)CCC2)cc1` showed a GI50 (K-562 leukemia) of 1.6 µM, a TGI (K-562 leukemia) of 2.95 µM and a GI50 (HOP-62 NSCLC) of 1.61 µM. The TGI (HOP-62 NSCLC) was 3.02 µM, the GI50 (KM12 colon) was 1.54 µM and the TGI (KM12 colon) was 3.27 µM. For the same compound, the GI50 (SK-MEL-5 melanoma) was 1.45 µM, the TGI (SK-MEL-5 melanoma) was 2.77 µM and the GI50 (CAKI-1 renal) was 1.05 µM. It also gave a TGI (CAKI-1 renal) of 2.27 µM, a GI50 (SK-MEL-28 melanoma) of 1.22 µM and a TGI (SK-MEL-28 melanoma) of 2.46 µM. For the same compound, the GI50 (UACC-62 melanoma) was 1.16 µM, the TGI (UACC-62 melanoma) was 2.39 µM and the GI50 (MOLT-4 leukemia) was 0.154 µM. It also gave a TGI (MOLT-4 leukemia) of 1.21 µM, a GI50 (SF-268 CNS) of 1.59 µM and a TGI (SF-268 CNS) of 2.96 µM. The GI50 (HCT-116 colon) was 1.5 µM, the TGI (HCT-116 colon) was 2.83 µM and the GI50 (MALME-3M melanoma) was 0.464 µM. The TGI (MALME-3M melanoma) was 1.91 µM, the GI50 (SW-620 colon) was 1.79 µM and the TGI (SW-620 colon) was 3.18 µM. The GI50 (SNB-75 CNS) was 0.597 µM, the TGI (SNB-75 CNS) was 2.02 µM and the GI50 (ACHN renal) was 1.72 µM. The TGI (ACHN renal) was 4.04 µM, the GI50 (NCI-H322M lung) was 1.38 µM and the TGI (NCI-H322M lung) was 2.96 µM. For the same compound, the GI50 (HOP-92 NSCLC) was 1.4 µM, the TGI (HOP-92 NSCLC) was 3.12 µM and the GI50 (MDA-MB-435 melanoma) was 1.75 µM. For the same compound, the TGI (MDA-MB-435 melanoma) was 3.13 µM, the GI50 (PC-3 prostate) was 0.139 µM and the TGI (PC-3 prostate) was 1.63 µM. It also gave a GI50 (HT29 colon) of 1.1 µM, a TGI (HT29 colon) of 2.34 µM and a GI50 (DU-145 prostate) of 2.42 µM. It also gave a TGI (DU-145 prostate) of 8.3 µM, a GI50 (NCI-H460 NSCLC) of 0.359 µM and a TGI (NCI-H460 NSCLC) of 1.82 µM. It also gave a GI50 (IGROV1 ovarian) of 0.187 µM, a TGI (IGROV1 ovarian) of 1.81 µM and a GI50 (NCI-H23 lung) of 2.4 µM. The TGI (NCI-H23 lung) was 8.07 µM, the GI50 (BT-549 breast) was 1.05 µM and the TGI (BT-549 breast) was 2.25 µM. It also gave a GI50 (HL-60(TB) leukemia) of 1.82 µM, a TGI (HL-60(TB) leukemia) of 3.21 µM and a GI50 (UACC-257 melanoma) of 1.46 µM. The TGI (UACC-257 melanoma) was 2.77 µM, the GI50 (SR leukemia) was 0.0966 µM and the TGI (SR leukemia) was 1.26 µM. The GI50 (EKVX NSCLC) was 1.64 µM, the TGI (EKVX NSCLC) was 5.08 µM and the GI50 (LOX IMVI melanoma) was 1.74 µM. It also gave a TGI (LOX IMVI melanoma) of 3.11 µM, a GI50 (A549 NSCLC) of 1.76 µM and a TGI (A549 NSCLC) of 4.17 µM. The GI50 (T-47D breast) was 0.0355 µM, the TGI (T-47D breast) was 1.04 µM and the GI50 (UO-31 renal) was 1.32 µM. The TGI (UO-31 renal) was 2.6 µM, the GI50 (COLO 205 colon) was 1.03 µM and the TGI (COLO 205 colon) was 2.21 µM. It also gave a GI50 (TK-10 renal) of 1.24 µM, a TGI (TK-10 renal) of 2.6 µM and a GI50 (OVCAR-4 ovarian) of 3.62 µM. For the same compound, the TGI (OVCAR-4 ovarian) was 12.1 µM, the GI50 (HCT-15 colon) was 1.24 µM and the TGI (HCT-15 colon) was 2.49 µM. For the same compound, the GI50 (NCI-H226 lung) was 1.42 µM, the TGI (NCI-H226 lung) was 3.34 µM and the GI50 (RXF 393 renal) was 0.582 µM. For the same compound, the TGI (RXF 393 renal) was 1.91 µM, the GI50 ([…]-0 renal) was 1.04 µM and the TGI (786-0 renal) was 2.22 µM. The GI50 (MDA-MB-468 breast) was 0.226 µM, the TGI (MDA-MB-468 breast) was 1.42 µM and the GI50 (HCC-2998 colon) was 1.35 µM. It also gave a TGI (HCC-2998 colon) of 2.64 µM, a GI50 (NCI-H522 lung) of 1.56 µM and a TGI (NCI-H522 lung) of 2.9 µM. For the same compound, the GI50 (RPMI-8226 leukemia) was 1.42 µM, the TGI (RPMI-8226 leukemia) was 2.72 µM and the GI50 (SK-OV-3 ovarian) was 0.547 µM. It also gave a TGI (SK-OV-3 ovarian) of 2.19 µM, a GI50 (OVCAR-3 ovarian) of 0.476 µM and a TGI (OVCAR-3 ovarian) of 2.05 µM. It also gave a GI50 (HS 578T breast) of 1.03 µM, a TGI (HS 578T breast) of 2.2 µM and a GI50 (U251 glioblastoma) of 1.46 µM. It also gave a TGI (U251 glioblastoma) of 2.77 µM, a GI50 (A498 renal) of 0.234 µM and a TGI (A498 renal) of 1.31 µM. It also gave a GI50 (MCF7 breast) of 0.0963 µM, a TGI (MCF7 breast) of 1.54 µM and a GI50 (SF-295 CNS) of 1.05 µM. The TGI (SF-295 CNS) was 2.23 µM, the GI50 (CCRF-CEM leukemia) was 0.285 µM and the TGI (CCRF-CEM leukemia) was 1.76 µM. For the same compound, the GI50 (SNB-19 CNS) was 1.76 µM, the TGI (SNB-19 CNS) was 3.17 µM and the GI50 (MDA-MB-231 breast) was 1.43 µM. For the same compound, the TGI (MDA-MB-231 breast) was 2.79 µM, the GI50 (OVCAR-8 ovarian) was 1.43 µM and the TGI (OVCAR-8 ovarian) was 2.75 µM. For the same compound, the GI50 (M14 melanoma) was 1.37 µM, the TGI (M14 melanoma) was 2.66 µM and the GI50 (SF-539 CNS) was 1.16 µM. It also gave a TGI (SF-539 CNS) of 2.38 µM, a GI50 (SN12C renal) of 2.39 µM and a TGI (SN12C renal) of 14.4 µM. For the same compound, the GI50 (NCI/ADR-RES ovarian) was 1.95 µM and the TGI (NCI/ADR-RES ovarian) was 4.12 µM.
